Source: publication PMC11944515, “Host-Mediated Antimicrobial Effects and NLRP3 Inflammasome Modulation by Caulerpin and Its Derivatives in Macrophage Models of Mycobacterial Infections” (Microorganisms, 2025)
Where two headings read alike, the source gives them in different places.

Legend:
[1] = tested on: M. smegmatis within RAW 264.7 macrophages; experiment: Therapeutic potential in M. smegmatis-infected RAW 264.7 cells (CFU); assay type: cell-based, Mycobacterium smegmatis; conditions: 24 h of treatment after infection; for reduction of bacterial burden, M. smegmatis within RAW 264.7: 15 μM, vs untreated controls
Protocol: For the first in vitro infection test with M. smegmatis, RAW 264.7 were seeded in 96-well culture plates at a density of 1 × 10^4 cells/well in DMEM medium (with 10% FBS, without antibiotics) and incubated overnight at 37 °C with 5% CO2 [20]. Infection of RAW 264.7 cells with M. smegmatis mc^2155 was performed at a multiplicity of infection of 1:1 for 2 h at 37 °C with 5% CO2. The medium with non-internalized bacteria was removed, and infected cells were then treated with the tested substances in DMEM: CP (15 µM, 7.5 µM and 3.25 µM), CA (30 µM, 15 µM, 7.5 µM and 3.25 µM), DE (15 µM, 7.5 µM and 3.25 µM), and DP (15 µM, 7.5 µM and 3.25 µM). Macrophages were lysed after 24 h with 0.1% Triton–X100, and these suspensions were diluted and plated on LB. CFU was determined after incubation of plates for 3 days at 37 °C. CFU numbers were expressed as log (CFU/well).

[2] = tested on: M. tuberculosis H37Ra in RAW 264.7 macrophages; experiment: Preventive effects (pre-incubation) in M. tuberculosis-infected RAW 264.7 cells (CFU); assay type: cell-based, Mycobacterium tuberculosis; conditions: for effect on M. tuberculosis CFU counts after pre-incubation and re-treatment: 12 h after infection
Protocol: For the second cellular infection test with M. tuberculosis H37Ra, RAW 264.7 cells were seeded in 96-well culture plates at a density of 4 × 10 ^3 cells/well in DMEM medium (with 10% FBS, without antibiotics) and incubated overnight at 37 °C with 5% CO2. Cells were pre-incubated with the CP (15 µM), DE (15 µM), and CA (30 µM) compounds. Infection of RAW 264.7 cells with M. tuberculosis was performed at a multiplicity of infection of 1:1 for 3 h at 37 °C with 5% CO2 [20]. Infected RAW 264.7 were then lysed with 0.1% Triton-X100, and suspensions were diluted and plated on Middlebrook 7H10 agar plus OADC. Remaining wells were then re-treated with the test substances in DMEM medium. Macrophages were lysed after 12 h and plated on Middlebrook 7H10 containing OADC prior to CFU counting. CFU/well was determined as previously described in the infection experiments using macrophages and M. smegmatis.

[3] = tested on: HepG2 cells; experiment: Cytotoxicity on HepG2 cells (MTT); assay type: cell-based, human; conditions: 24 h; for effect on HepG2 cell viability: 30 to 120 µM, MTT; for IC50: Homo sapiens, HepG2, estimated
Protocol: Cytotoxicity was evaluated using the MTT method. For this purpose, two cell lines were tested: Vero E6 and HepG2. Both cell lines were seeded at 1 × 10^4 cells/well in 96-well microtiter plates and incubated overnight to adhere. The culture medium was carefully aspirated and replaced with 100 µL DMEM plus 100 µL of test compound solutions (CP, CA, and DE), yielding final concentrations ranging from 30 to 120 µM (1% DMSO, v/v). Cells were incubated with test compounds for 24 h at 37 °C in a 5% CO2 atmosphere. MTT solution (0.5 mg/mL) was subsequently added, and cells were incubated for an additional 3 h. The resulting formazan crystals were dried at room temperature for 24 h and dissolved in DMSO. Absorbance was measured at 570 nm (microplate reader EL800, BioTek, Winooski, VT, USA). Cell viability was calculated as previously described in the RAW 264.7 cell viability assay section.

[4] = tested on: TNF-α; experiment: TNF-α production in M. smegmatis-infected RAW 264.7 cells (ELISA); assay type: cell-based, murine; conditions: 15 μM, 24 h, M. smegmatis MOI 1:1, vs infected control
Protocol: (§1) IL-1β, IL-10, and TNF-α levels in the culture supernatant were determined by sandwich enzyme-linked immunosorbent assay as per the manufacturer’s instructions. Optical density was read at 450 nm using a microplate spectrophotometer (microplate reader EL800, BioTek, Winooski, VT, USA).

[5] = tested on: IL-1β; experiment: IL-1β production in M. smegmatis-infected RAW 264.7 cells (ELISA); assay type: cell-based, murine; conditions: 15 μM, 24 h, M. smegmatis MOI 1:1, vs infected control
Protocol: as §1

[6] = tested on: NLRP3 inflammasome; experiment: NLRP3 evaluation by flow cytometry in M. smegmatis-infected RAW 264.7 cells; assay type: cell-based, murine; conditions: 15 μM, 24 h
Protocol: Cells were placed in a 96-well plate (U bottom) 24 h after treatment in culture. Then, cells were fixed by Cytofix (BD Cytofix™, Franklin Lakes, NJ, USA) and permeabilized by Perm Buffer (BD Phosflow™, San Diego, CA, USA) for 30 min each. Cells were subsequently labeled with an unconjugated anti-NLRP3 antibody, according to the manufacturer’s instructions (BD Biosciences, San Diego, CA, USA). Finally, anti-rat IgG2a (PE) was added for NLRP3 analysis and cells were suspended in PBS and evaluated in a BD Accuri C6 Plus flow cytometer.
First, macrophages were visualized using size (FSC) and granularity (SSC) parameters, and a gate was performed in the cell population. The macrophages were then analyzed by measuring the median fluorescence intensity (MFI) corresponding to antibody labeling. MFI data were normalized to the control group, which was set to 100%.

[7] = tested on: HepG2 cells; parameters: method as in PMID 32579063; conditions: 15.80 to 500 µg/mL over 24 h; cited from earlier work
[8] = tested on: IFN-γ, IL-6, and TNF-α levels; parameters: method as in PMID 30205459; conditions: doses of 40 mg/kg, murine model of peritonitis and ulcerative colitis; cited from earlier work
[9] = tested on: IL-8, IL-6, and TNF-α cytokines; parameters: method as in PMID 34884957; conditions: pretreatment, compared with untreated control; cited from earlier work
[10] = tested on: Vero E6 cells; conditions: cited from earlier work

Structure (SMILES)	reduction of bacterial counts, M. smegmatis within RAW 264.7 ([1]; 30 μM)	effect on M. tuberculosis CFU counts after pre-incubation and re-treatment ([2]; 30 μM)	effect on HepG2 cell viability [3]	IC50 [3]	reduction of bacterial burden, M. smegmatis within RAW 264.7 [1]	reduction in TNF-α production [4]	reduction in IL-1β production [5]	reduction of NLRP3 expression (MFI) [6]	effect on M. tuberculosis CFU counts after pre-incubation and re-treatment ([2]; 15 μM)	anticancer activity in HepG2 cells [7]	effect on IFN-γ, IL-6, and TNF-α levels [8]	effect on IL-8, IL-6, and TNF-α expression [9]	effect on Vero E6 viability ([10]; 589.3 µg/mL)	effect on Vero E6 viability ([10]; 50 to 1000 µM for 72 h)	effect of pre-incubation on M. tuberculosis bacterial loads ([2]; 15 μM, immediately after 3 h of infection)
O=C(O)C1=Cc2c([nH]c3ccccc23)C(C(=O)O)=Cc2c1[nH]c1ccccc21 [CA, caulerpinic acid]	0.243 log10	significant reductions in CFU counts	did not significantly reduce cell viability	> 120 µM	–	–	–	–	–	–	–	–	–	–	–
COC(=O)/C1=C/c2c([nH]c3ccccc23)/C(C(=O)OC)=C\c2c1[nH]c1ccccc21 [CP, Caulerpin]	–	–	did not significantly reduce cell viability	> 120 µM	0.230 log10 CFU	34.07%	69.35%	29.12%	significant reductions in CFU counts	exhibited anticancer activity in HepG2 cells	reduced IFN-γ, IL-6, and TNF-α levels	reduced expression of IL-8, IL-6, and TNF-α cytokines	maintained their viability	no effect on Vero E6 viability	–
CCOC(=O)/C1=C/c2c([nH]c3ccccc23)/C(C(=O)OCC)=C\c2c1[nH]c1ccccc21 [DE, (6E,13E)-diethyl 5,12-dihydrocycloocta[1,2-b:5,6-b′]diindole-6,13-dicarboxylate]	–	–	did not significantly reduce cell viability	> 120 µM	0.430 log10 CFU	56.94%	59.82%	39.81%	significant reductions in CFU counts	–	–	–	–	–	significantly reduced bacterial loads
